pEC50: −log10 of the molar value.
Target: T1, human recombinant mGluR5 (Homo sapiens, UniProt P41594)
T1 construct: expressed in transfected cells; host or cells: HEK 293
Assay: positive modulation of mGluR5, calcium based FLIPR assay
Settings: HEK 293 cell line expressing human recombinant mGluR5; EC50 of the modulation from peak Ca fluorescence signal after glutamate at approx. 5% basal stimulation
In short: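 HEK 293 cells expressing human recombinant mGluR5, Calcium-4 dye-loaded in Ringer solution pH 7.4. Compound (1% DMSO final) preincubated 5 min, then glutamate at ~5% of maximal effect added; peak Ca2+ fluorescence gives EC50 by nonlinear regression, normalized to DMSO (100%) and 10 μM CDPPB (200%) controls.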

T1 sequence (P41594 21-1212): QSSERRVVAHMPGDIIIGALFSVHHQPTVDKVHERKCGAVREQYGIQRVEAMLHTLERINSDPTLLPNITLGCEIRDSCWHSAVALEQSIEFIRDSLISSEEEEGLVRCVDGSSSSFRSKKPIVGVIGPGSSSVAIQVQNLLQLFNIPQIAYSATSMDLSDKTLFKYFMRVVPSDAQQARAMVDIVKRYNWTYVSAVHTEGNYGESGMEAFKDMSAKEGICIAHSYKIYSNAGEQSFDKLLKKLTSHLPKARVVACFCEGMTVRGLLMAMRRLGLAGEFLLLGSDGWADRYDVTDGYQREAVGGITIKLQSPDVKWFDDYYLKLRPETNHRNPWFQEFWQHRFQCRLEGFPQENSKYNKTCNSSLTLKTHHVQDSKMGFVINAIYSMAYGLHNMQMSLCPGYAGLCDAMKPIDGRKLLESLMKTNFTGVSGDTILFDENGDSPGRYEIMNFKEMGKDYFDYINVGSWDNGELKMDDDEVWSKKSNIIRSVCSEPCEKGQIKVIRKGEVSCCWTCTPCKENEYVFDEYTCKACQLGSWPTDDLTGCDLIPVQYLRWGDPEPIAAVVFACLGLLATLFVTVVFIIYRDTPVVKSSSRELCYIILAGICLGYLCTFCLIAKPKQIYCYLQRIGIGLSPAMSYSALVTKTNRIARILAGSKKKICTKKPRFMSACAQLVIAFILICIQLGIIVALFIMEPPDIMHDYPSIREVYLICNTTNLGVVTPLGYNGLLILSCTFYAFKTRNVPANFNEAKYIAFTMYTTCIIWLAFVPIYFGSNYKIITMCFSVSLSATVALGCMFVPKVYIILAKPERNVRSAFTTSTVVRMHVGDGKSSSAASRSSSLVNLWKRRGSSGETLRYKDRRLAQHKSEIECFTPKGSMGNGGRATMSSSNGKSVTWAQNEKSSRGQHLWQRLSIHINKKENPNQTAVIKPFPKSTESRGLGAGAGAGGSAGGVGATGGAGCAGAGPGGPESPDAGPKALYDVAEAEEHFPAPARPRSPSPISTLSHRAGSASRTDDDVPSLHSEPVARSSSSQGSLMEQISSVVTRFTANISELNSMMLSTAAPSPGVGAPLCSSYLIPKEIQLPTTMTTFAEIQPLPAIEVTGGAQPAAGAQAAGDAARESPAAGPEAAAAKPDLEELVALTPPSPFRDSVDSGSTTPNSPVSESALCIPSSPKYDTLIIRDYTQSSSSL

Row | Compound | pEC50
1 | Cc1cc(-c2cc(-c3ccccc3)n(CC(=O)N3CCc4ccccc4CC3)n2)ccc1F [Example 7.01.090] | 6.62
2 | CCc1cc(-c2ccc(F)c(C)c2)nn1CC(=O)N1CCN(c2nnc(C)o2)CC1 [Example 7.02.220] | 6.54
3 | O=C(Cn1nc(-c2ccccc2)cc1-c1ccccc1)N1CCN(c2ccccc2)C(=O)C1 [Example 7.02.003] | 6.03
4 | Nc1nc2c(s1)CCN(C(=O)Cn1nc(-c3ccc(F)cn3)cc1-c1ccccc1)CC2 [Example 7.02.058] | 6.12
5 | O=C(Cn1nc(-c2ccccc2)cc1-c1ccccc1)N1CCN(c2cccc(Br)c2)C(=O)C1 [Example 7.01.013] | 6.21
6 | Cc1cc(-c2cc(-c3ccccc3)nn2CC(=O)N2CCc3nc(C)sc3CC2)ccn1 [Example 7.01.064] | 5.91
7 | Cc1nc2c(o1)CN(C(=O)Cn1nc(-c3ccccc3)cc1-c1ccccc1)CC2 [Example 7.01.002] | 6.23
8 | O=C(Cn1nc(-c2ccccc2)cc1-c1ccccc1)N1CCc2nc(-c3ccccc3)nc(O)c2C1 [Example 7.02.002] | 5.93
9 | O=C(Cn1nc(-c2ccccc2)cc1-c1ccccc1)N1CCN(c2nccc3occc23)CC1 [Example 7.01.049] | 6.19
10 | CC(C)c1ncc2c(n1)CCN(C(=O)Cn1nc(-c3ccccc3)cc1-c1ccccc1)C2 [Example 7.01.029] | 6.10
11 | Cc1nnc(N2CCN(C(=O)Cn3nc(-c4cc(C)c(F)cn4)cc3-c3ccccc3)CC2)o1 [Example 7.02.180] | 5.97
12 | COc1cccc(N2CCN(C(=O)Cn3nc(-c4ccccc4)cc3-c3ccccc3)CC2=O)c1 [Example 7.01.035] | 6.69
13 | COc1cnc(C2CCN(C(=O)Cn3nc(-c4ccc(C)c(C)c4)cc3-c3ccccc3)CC2)nc1 [Example 7.02.088] | 6.60
14 | O=C(Cn1nc(-c2ccccc2)cc1-c1ccccc1)N1CCC(c2nnc(-c3ccc(F)cc3)o2)CC1 [Example 7.01.047] | 6.10
15 | COc1cc2c(cc1OC)CCN(C(=O)Cn1nc(-c3ccc(F)c(C)c3)cc1-c1ccccc1)CC2 [Example 7.01.079] | 6.35
16 | CCc1cc(-c2cccc(C#N)c2)nn1CC(=O)N1CCN(c2nnc(C)o2)CC1 [Example 7.02.187] | 5.79
17 | C=CCNC(=O)Nc1nc2c(s1)CN(C(=O)Cn1nc(-c3ccccc3)cc1-c1ccccc1)CC2 [Example 7.01.012] | 6.08
18 | CCc1nnc(C2CCN(C(=O)Cn3nc(-c4ccc(F)c(C)c4)cc3CC)CC2)o1 [Example 7.02.219] | 6.68
19 | COCc1cc(-c2ccc(F)c(C)c2)nn1CC(=O)N1Cc2nc(C)sc2C1 [Example 7.01.058] | 6.55
20 | COc1ccc2c(c1)CN(C(=O)Cn1nc(-c3ccccc3)cc1-c1ccccc1)C2 [Example 7.01.004] | 6.41
21 | O=C(Cn1nc(-c2ccccc2)cc1-c1ccccc1)N1CCc2cc(F)ccc2C1 [Example 7.01.027] | 5.99
22 | Cc1cc(-c2cc(-c3ccccc3)n(CC(=O)N3CCc4cnc(Nc5ccccc5)nc4CC3)n2)ccc1F [Example 7.01.080] | 6.56

Now those with a higher pEC50, led by results:

Row | pEC50 | Compound
23 | 7.27 | CCc1nnc(C2CCN(C(=O)Cn3nc(-c4ccc(F)c(C)c4)cc3-c3ccccc3)CC2)o1 [Example 7.02.218]
24 | 7.37 | CCc1cc(-c2ccc(F)c(C)c2)nn1CC(=O)N1CCN(c2noc(C)n2)CC1 [Example 7.02.196]
25 | 7.46 | COc1nc2c(s1)CCN(C(=O)Cn1nc(-c3ccc(F)c(C)c3)cc1-c1ccccc1)CC2 [Example 7.02.161]
26 | 6.75 | COc1cnc(C2CCN(C(=O)Cn3nc(-c4cccc(C)c4)cc3-c3ccccc3)CC2)nc1 [Example 7.02.203]
27 | 6.86 | CCc1cc(-c2ccc(F)c(C)c2)nn1CC(=O)N1CCC(c2ncc(C)s2)CC1 [Example 7.02.141]
28 | 7.12 | COc1ccc(-c2cc(-c3ccccc3)n(CC(=O)N3CCc4nc(C)sc4CC3)n2)cc1C [Example 7.02.241]
29 | 7.44 | CCCc1cc(-c2ccc(F)c(C)c2)nn1CC(=O)N1CCC(c2ncc(C)o2)CC1 [Example 7.02.208]
30 | 8.10 | Cc1cc(-c2cc(-c3ccccc3)n(CC(=O)N3CCc4cccnc4CC3)n2)ccc1F [Example 7.02.131]
31 | 7.08 | CCc1cc(-c2ccc(F)c(C)c2)nn1CC(=O)N1CCc2ncsc2CC1 [Example 7.01.073]
32 | 7.23 | Cc1nc2c(s1)CCN(C(=O)Cn1nc(-c3cc(C)c(F)cn3)cc1-c1ccccc1)CC2 [Example 7.02.175]
33 | 7.02 | Cc1nc2c(s1)CCN(C(=O)Cn1nc(-c3ccc(F)cn3)cc1-c1ccc(F)cc1)CC2 [Example 7.02.061]
34 | 6.83 | CCc1cc(-c2ccc(F)c(C)c2)nn1CC(=O)N1Cc2nc(C)sc2C1 [Example 7.02.025]
35 | 6.85 | COc1cccc(C2=CCN(C(=O)Cn3nc(-c4ccc(F)c(C)c4)cc3-c3ccccc3)CC2)c1 [Example 7.02.136]
36 | 7.35 | CCc1cc(-c2ccc(F)c(C)c2)nn1CC(=O)N1CC=C(c2ncc(C)s2)CC1 [Example 7.02.135]
37 | 7.16 | Cc1nc2c(s1)CCN(C(=O)Cn1nc(-c3ccc(OC(F)F)cn3)cc1-c1ccccc1)CC2 [Example 7.02.236]
38 | 6.71 | CNc1nc2c(s1)CCN(C(=O)Cn1nc(-c3ccc(F)c(C)c3)cc1C1CC1)CC2 [Example 7.02.037]
39 | 7.39 | Cc1nc2c(o1)CN(C(=O)Cn1nc(-c3ccc(C)c(F)c3)cc1-c1ccccc1)C2 [Example 7.02.253]
40 | 7.55 | COc1cc(-c2cc(-c3ccccc3)n(CC(=O)N3Cc4nc(C)sc4C3)n2)ccc1F [Example 7.02.150]
41 | 8.22 | Cc1nnc(N2CCN(C(=O)Cn3nc(-c4ccc(F)c(C)c4)cc3-c3ccccc3)CC2)o1 [Example 7.02.095]
42 | 6.77 | CCc1cc(-c2ccc(C)c(C)c2)nn1CC(=O)N1CCc2nc(N)sc2CC1 [Example 7.02.074]
43 | 7.59 | CCc1cc(-c2ccc(F)c(C)c2)nn1CC(=O)N1Cc2nc(C)oc2C1 [Example 7.02.213]
44 | 7.24 | Cc1cc(-c2cc(-c3ccccc3)n(CC(=O)N3CCc4ccsc4CC3)n2)ccc1F [Example 7.02.130]
45 | 7.48 | Cc1cc(-c2cc(-c3ccccc3)n(CC(=O)N3CCc4ncnc(-c5ccccc5)c4CC3)n2)ccc1F [Example 7.01.092]
46 | 7.15 | Cc1ccc(-c2cc(-c3ccccc3)n(CC(=O)N3CCc4nc(N)sc4CC3)n2)nc1C [Example 7.02.123]
47 | 6.84 | CCc1cc(-c2ccc(C)c(F)c2)nn1CC(=O)N1CCc2nc(C)sc2CC1 [Example 7.02.238]
48 | 7.46 | Cc1cc(-c2cc(-c3ccccc3)n(CC(=O)N3CCc4nc(N)sc4C3)n2)ccc1F [Example 7.01.093]
49 | 7.38 | Cc1nc2c(s1)CCN(C(=O)Cn1nc(-c3ccc(F)c(C)c3)cc1C(C)C)CC2 [Example 7.02.055]
50 | 7.25 | CCc1cc(-c2ccc(F)c(C)c2)nn1CC(=O)N1CCN(c2nccs2)CC1 [Example 7.02.217]
51 | 7.46 | Cc1nc2c(s1)CCN(C(=O)Cn1nc(-c3ccc(F)c(C)c3)cc1C1CC1)CC2 [Example 7.02.035]
52 | 7.89 | CCCc1cc(-c2ccc(F)c(C)c2)nn1CC(=O)N1CCN(c2noc(C)n2)CC1 [Example 7.02.211]

Reference: patent US8741892B2, “Compounds” (Boehringer Ingelheim International GmbH, priority 2011, dated 2014)
